Experimental data: the NIST ThermoML archive (doi:10.1016/j.jct.2016.12.012)
Where “and” joins values, the source holds several entries; their conditions need not be identical. Equal entries are not always repeated.

Legend:
[1] = Molar enthalpy of transition or fusion; details: DSC
[2] = for Normal melting temperature: DTA

CC(=O)Oc1cccc(C(C)=O)c1 [3-acetoxyacetophenone]
Details | Molar enthalpy of transition or fusion, Crystal 1 [kcal/mol] | Molar enthalpy of transition or fusion, Crystal 2 [kcal/mol] | Normal melting temperature, Crystal 1 [°C] | Triple point temperature, Crystal 2, DSC [K]
[1] | 5.54 | 0.239 | – | –
[2] | – | – | 43.1 | 308.1

[2], Crystal 2, Calculated from knudsen effusion weight loss
Details | vapor or sublimation pressure
297.65 K | 0.000123 kPa and 0.000124 kPa
299.16 K | 0.000153 kPa and 0.000152 kPa
300.09 K | 0.000169 kPa and 0.000167 kPa and 0.000168 kPa
301.23 K | 0.000194 kPa and 0.000196 kPa
302.21 K | 0.00023 kPa
303.25 K | 0.000262 kPa and 0.000259 kPa
304.24 K | 0.000293 kPa and 0.00029 kPa
305.23 K | 0.000337 kPa and 0.00034 kPa and 0.000334 kPa
306.24 K | 0.000387 kPa and 0.000383 kPa and 0.000389 kPa
307.26 K | 0.000436 kPa and 0.000441 kPa and 0.000434 kPa

[2]
Details | vapor or sublimation pressure [kPa]
305.09 K, Metastable liquid, Closed cell (Static) method | 0.00046
307.07 K, Metastable liquid, Closed cell (Static) method | 0.00055
309.03 K, Metastable liquid, Closed cell (Static) method | 0.00067
311.04 K, Metastable liquid, Closed cell (Static) method | 0.00082
312.98 K, Metastable liquid, Closed cell (Static) method | 0.001
315.01 K, Closed cell (Static) method, Liquid | 0.00122
317.02 K, Closed cell (Static) method, Liquid | 0.00147
319.06 K, Closed cell (Static) method, Liquid | 0.00173
320.99 K, Closed cell (Static) method, Liquid | 0.00206
323.04 K, Closed cell (Static) method, Liquid | 0.00247
324.96 K, Closed cell (Static) method, Liquid | 0.00291
326.99 K, Closed cell (Static) method, Liquid | 0.00346
328.93 K, Closed cell (Static) method, Liquid | 0.0041
330.94 K, Closed cell (Static) method, Liquid | 0.00489
332.92 K, Closed cell (Static) method, Liquid | 0.00565
334.91 K, Closed cell (Static) method, Liquid | 0.00677
336.87 K, Closed cell (Static) method, Liquid | 0.00798
338.84 K, Closed cell (Static) method, Liquid | 0.00935
340.83 K, Closed cell (Static) method, Liquid | 0.01079
342.8 K, Closed cell (Static) method, Liquid | 0.01271
344.79 K, Closed cell (Static) method, Liquid | 0.01475
346.92 K, Closed cell (Static) method, Liquid | 0.01728
348.74 K, Closed cell (Static) method, Liquid | 0.01981
350.69 K, Closed cell (Static) method, Liquid | 0.02301
352.67 K, Closed cell (Static) method, Liquid | 0.02636
354.64 K, Closed cell (Static) method, Liquid | 0.03047
356.61 K, Closed cell (Static) method, Liquid | 0.0348
358.61 K, Closed cell (Static) method, Liquid | 0.03975
360.51 K, Closed cell (Static) method, Liquid | 0.04544
362.54 K, Closed cell (Static) method, Liquid | 0.05195
364.52 K, Closed cell (Static) method, Liquid | 0.05948
366.49 K, Closed cell (Static) method, Liquid | 0.06748
368.46 K, Closed cell (Static) method, Liquid | 0.07663

CC(=O)Oc1ccccc1C(C)=O [2'-acetoxyacetophenone]
Crystal
Details | Molar enthalpy of transition or fusion [kcal/mol] | Normal melting temperature [°C]
[1] | 7.72 | –
[2] | – | 88.7

[2]
Details | vapor or sublimation pressure
298.01 K, Crystal, Calculated from knudsen effusion weight loss | 6.1e-05 kPa and 6e-05 kPa
299.4 K, Crystal, Calculated from knudsen effusion weight loss | 7.4e-05 kPa
301.22 K, Crystal, Calculated from knudsen effusion weight loss | 9.7e-05 kPa and 9.6e-05 kPa
303.17 K, Crystal, Calculated from knudsen effusion weight loss | 0.000121 kPa and 0.000122 kPa and 0.000124 kPa
305.39 K, Crystal, Calculated from knudsen effusion weight loss | 0.000164 kPa and 0.000166 kPa
307.2 K, Crystal, Calculated from knudsen effusion weight loss | 0.000214 kPa and 0.000217 kPa and 0.000215 kPa
309.14 K, Crystal, Calculated from knudsen effusion weight loss | 0.000275 kPa and 0.000277 kPa
311.34 K, Crystal, Calculated from knudsen effusion weight loss | 0.000362 kPa and 0.000361 kPa and 0.000365 kPa
313 K, Crystal, Closed cell (Static) method | 0.00046 kPa
313.21 K, Crystal, Calculated from knudsen effusion weight loss | 0.000467 kPa and 0.000465 kPa and 0.000469 kPa
315.01 K, Crystal, Closed cell (Static) method | 0.0006 kPa
315.13 K, Crystal, Calculated from knudsen effusion weight loss | 0.00059 kPa and 0.000588 kPa and 0.000593 kPa
316.99 K, Crystal, Closed cell (Static) method | 0.00076 kPa
317.31 K, Crystal, Calculated from knudsen effusion weight loss | 0.000786 kPa and 0.000778 kPa
318.98 K, Crystal, Closed cell (Static) method | 0.00097 kPa
319.28 K, Crystal, Calculated from knudsen effusion weight loss | 0.00102 kPa and 0.001014 kPa and 0.001001 kPa
320.96 K, Crystal, Closed cell (Static) method | 0.00123 kPa
321.27 K, Crystal, Calculated from knudsen effusion weight loss | 0.001305 kPa and 0.001292 kPa and 0.001286 kPa
322.97 K, Crystal, Closed cell (Static) method | 0.00156 kPa
324.96 K, Crystal, Closed cell (Static) method | 0.00199 kPa
326.91 K, Crystal, Closed cell (Static) method | 0.0025 kPa
328.91 K, Crystal, Closed cell (Static) method | 0.00314 kPa
330.92 K, Crystal, Closed cell (Static) method | 0.00397 kPa
332.88 K, Crystal, Closed cell (Static) method | 0.00495 kPa
334.86 K, Crystal, Closed cell (Static) method | 0.00619 kPa
336.81 K, Crystal, Closed cell (Static) method | 0.00762 kPa
338.84 K, Crystal, Closed cell (Static) method | 0.00958 kPa
340.8 K, Crystal, Closed cell (Static) method | 0.01175 kPa
342.74 K, Crystal, Closed cell (Static) method | 0.01458 kPa
344.72 K, Crystal, Closed cell (Static) method | 0.01786 kPa
344.73 K, Metastable liquid, Closed cell (Static) method | 0.03005 kPa
346.7 K, Crystal, Closed cell (Static) method | 0.02195 kPa
346.73 K, Metastable liquid, Closed cell (Static) method | 0.03465 kPa
348.65 K, Metastable liquid, Closed cell (Static) method | 0.03975 kPa
348.68 K, Crystal, Closed cell (Static) method | 0.02665 kPa
350.65 K, Metastable liquid, Closed cell (Static) method | 0.04556 kPa
350.69 K, Crystal, Closed cell (Static) method | 0.0325 kPa
352.61 K, Crystal, Closed cell (Static) method | 0.0395 kPa
352.64 K, Metastable liquid, Closed cell (Static) method | 0.05208 kPa
354.59 K, Metastable liquid, Closed cell (Static) method | 0.05928 kPa
354.61 K, Crystal, Closed cell (Static) method | 0.04802 kPa
356.54 K, Crystal, Closed cell (Static) method | 0.05812 kPa
356.54 K, Metastable liquid, Closed cell (Static) method | 0.06775 kPa
358.51 K, Metastable liquid, Closed cell (Static) method | 0.07683 kPa
360.53 K, Metastable liquid, Closed cell (Static) method | 0.08729 kPa
362.46 K, Metastable liquid, Closed cell (Static) method | 0.0988 kPa
364.45 K, Closed cell (Static) method, Liquid | 0.1124 kPa
366.49 K, Closed cell (Static) method, Liquid | 0.127 kPa
368.43 K, Closed cell (Static) method, Liquid | 0.1443 kPa
370.48 K, Closed cell (Static) method, Liquid | 0.162 kPa
372.37 K, Closed cell (Static) method, Liquid | 0.1819 kPa
374.39 K, Closed cell (Static) method, Liquid | 0.205 kPa
376.34 K, Closed cell (Static) method, Liquid | 0.2324 kPa
378.28 K, Closed cell (Static) method, Liquid | 0.2588 kPa
380.23 K, Closed cell (Static) method, Liquid | 0.2847 kPa
382.24 K, Closed cell (Static) method, Liquid | 0.3195 kPa
384.15 K, Closed cell (Static) method, Liquid | 0.3609 kPa
386.19 K, Closed cell (Static) method, Liquid | 0.3984 kPa
388.15 K, Closed cell (Static) method, Liquid | 0.4446 kPa
390.12 K, Closed cell (Static) method, Liquid | 0.4936 kPa
392.04 K, Closed cell (Static) method, Liquid | 0.5463 kPa
394.07 K, Closed cell (Static) method, Liquid | 0.6059 kPa
395.98 K, Closed cell (Static) method, Liquid | 0.6687 kPa
398 K, Closed cell (Static) method, Liquid | 0.7392 kPa
